From US20220340983A1, “SYSTEMS AND ASSAYS FOR IDENTIFYING PU.1 INHIBITORS” (Massachustts Institute of Technology, priority 2019, published 2022)

Legend:
[1] = tested on: iPSC-microglia; assay: Morphology of IFN-gamma activated iPSC-microglia; assay type: cell-based, human; settings: IFN-gamma 25 ng/mL 3 days, co-treated with A11 2.5 μM 2 days
Protocol: (§1) FIGS. 10A-10D show anti-inflammatory properties of A11 after IFNγ treatment on human induced pluripotent stem cell derived microglia. Cell viability is shown in FIG. 10A as measured with CellTiter Glo (Promega) in untreated (vehicle), A11 (2.5 μM) treated, IFNγ (25 ng/mL) treated and A11 +IFNγ treated cells. The morphology (round represent un-activated and elongated, filamentous represent activated by IFNγ) of these same conditions is shown in FIGS. 10B and quantified in FIG. 10C.
(§2) Human induced pluripotent stem cell derived microglia (iPSC-microglia) were activated with IFN-gamma (25 ng/mL, 3 days) and co-treated with A11 (2.5 μM, 2 days).

[2] = tested on: PU.1 dependent gene expression; assay: RT-qPCR of mRNA levels in BV2 PU.1-Luciferase cells (validation round 3); assay type: cell-based, mouse; settings: 2-day treatment
[3] = tested on: iPS and ES-microglia; assay: ATP levels (CellTiter-Glo luminescence per well) in microglia; assay type: cell-based, human
Protocol: (§3) Top row: Effect of a 2-day treatment with DPBS (10 μL/mL), IFNγ (25 ng/mL), TNFα (25 ng/mL), TGFβ (25 ng/mL), IL1β (25 ng/mL), LPS (25 ng/mL), ATP (100 nM), CD200 (100 ng/mL), IFNα (25 ng/mL), IL12 (5 ng/mL), CX3CL1 (100 ng/mL), CCL5 (100 ng/mL), PMA (10 ng/mL), IFNβ (10 ng/mL), IL33 (10 ng/mL), and IL4 (100 ng/mL). n=52 for DPBS, n=9 for all other inflammatory molecules, except IL33 where n=3. Bottom row: effect after co-application with A11 (20 nM). Scale bar 10 μm. […] Student's unpaired, two sided t-test, ****P≤0.0001, ***P≤0.001, **P≤0.01, *P≤0.05. […] Top row: An increase in number of cells per well with ≥2 BODIPY-positive structures was observed after a 2-day treatment with IFNγ (25 ng/mL), TNFα (25 ng/mL) and IL33 (10 ng/mL) as compared to DPBS treatment. […] Student's unpaired, two-sided t-test, ***P≤0.001, **P≤0.01, *P≤0.05. […] A 2-day treatment with IFNγ (25 ng/mL) caused increase in ATP levels that was reversed by A11 (20 nM) treatment in iPS (left panel) and ES-microglia (right panel). Student's unpaired, twosided t-test, **P≤0.01. […]
(§4) FIGS. 17A-17H show results from comparing the effects of multiple inflammatory molecules in iPS-microglia. […] Quantification based on total Vybrant DiI-positive surface area divided by number of Hoechst positive cells per field of view. […]

[4] = tested on: iPSC-microglia; assay: mRNA expression (RTqPCR) in IFN-gamma activated iPSC-microglia; assay type: cell-based, human; settings: IFN-gamma 25 ng/mL 3 days, co-treated with A11 2.5 μM 2 days
Protocol: as §1, §2

[5] = tested on: multiple cell lines; assay: Time course of A11 efficacy after application; assay type: cell-based; settings: A11 obtained from several vendors
Text: The gene modulation was reproduced in unmodified BV2 cells and primary mouse microglia. FIG. 14B: Concentration-response curve of A11 from multiple vendors, measured as percent reduction of luminescence. Non-linear fit with Hill's equation with baseline fixed to 0. FIG. 14C: Time course for reduction of mRNA levels of luciferase and il1β as well as luminescence emission in BV2 PU.1-Luciferase cells. FIGS. 14D-14E: Time and concentration-response curve (of pHrodo-labelled particles) for uptake of pHrodo-labelled Zymosan A (FIG. 14D) and mouse myelin in (FIG. 14E) in BV2 cells (left panels, respectively in each FIGS. 14D-14E), and iPS-microglia (right panels, respectively in each FIGS. 14D-14E). FIGS.: 14F-14G: Time and concentration-response curves of A11 (FIG. 14F) and DB2313 (FIG. 14G) of Zymosan A uptake in BV2 cells. Left, middle, and right panels show 1, 2 and 3 hours after compound application, respectively. ANOVA followed by Dunnett's post hoc test versus vehicle, black bars indicate P≤0.05.

[6] = tested on: iPSC-microglia; assay: Uptake of pHrodo-GFP-labelled mouse myelin particles in iPSC-microglia; assay type: cell-based, human; settings: concentration response curve, after 48 h
Protocol: FIGS. 12A-12B show the effects of A11 on cell viability and myelin uptake after 48 h.
A concentration response curve was performed for cell viability and myelin uptake (FIG. 12A) in iPSC-microglia. Myelin uptake was measured by uptake of pHrodo-GFP-labelled wild-type mouse myelin particles (FIG. 12B). […] The IC50s obtained for these assays was in the low nM range, matching the data obtained in BV2 cells.

[7] = tested on: iPS and ES-microglia; assay: Average cell size (Vybrant DiI-positive surface area per Hoechst-positive cell) in microglia; assay type: cell-based, human; settings: A11 alone ≤20 nM
Protocol: as §3, §4

Question: Which “morphology induced by IFN-gamma” value [1] does the source give for `O=S(=O)(NCc1ccncc1)c1ccc(C2CCCCC2)cc1` [Compound A11] here?
Answer: Its value is “reversal of the elongated and filamentous morphology induced by IFN-gamma”.

Question: And the “mRNA levels Apoe” value [2]?
Answer: The value was 1.522 multiples of 1×.

Question: And the “mRNA levels IL1β” value [2]?
Answer: Its value is 0.418 multiples of 1×.

Question: What about the “mRNA levels Lucif.” value [2] of the same compound?
Answer: The value was 0.376 multiples of 1×.

Question: And the “mRNA levels Spi1” value [2]?
Answer: The value was 1.001 multiples of 1×.

Question: And the “mRNA levels Trem2” value [2]?
Answer: The value was 2.051 multiples of 1×.

Question: What about the “mRNA levels Tyrobp” value [2] of the same compound?
Answer: Its value is 2.101 multiples of 1×.

Question: And the “ATP levels, increase caused by IFNγ” value ([3]; 2-day IFNγ 25 ng/mL plus A11 20 nM)?
Answer: The value was “reversed”.

Question: And the “amount of ATP per well” value ([3]; A11 alone ≤20 nM)?
Answer: Its value is “no effect”.

Question: And the “CCL2 mRNA expression levels” value [4]?
Answer: The value was “reversal of IL1-beta and CCL2 increases to vehicle treated levels”.

Question: And the “IL1-beta mRNA expression levels” value [4]?
Answer: The value was “reversal of IL1-beta and CCL2 increases to vehicle treated levels”.

Question: What about the “time after application at which efficacy starts” value [5] of the same compound?
Answer: The value was 3 h.

Question: And the “IC50 of myelin uptake” value [6]?
Answer: Its value is “low nM range”.

Question: And the “maximal possible reduction in myelin uptake” value [6]?
Answer: Its value is 50%.

Question: What about the “average cell size versus DPBS treatment” value [7] of the same compound?
Answer: The value was “no effects”.
